From US7563799B2, “Substituted pyrazolo[3,4-D]pyrimidines as p38 map kinase inhibitors” (Roche Palo Alto LLC, priority 2005, dated 2009)

Assays:
p38 MAP kinase = target: T1, p38 MAP kinase (Homo sapiens, UniProt Q16539); experiment: p38 (MAP) kinase in vitro assay (transfer of γ-33P from ATP to Myelin Basic Protein); type: biochemical; conditions: phosphorylated recombinant p38 MAP kinase, MBP substrate, γ-33P-ATP, 30° C.
T1 construct: made in house; host or cells: E. coli (co-expressed with SEK-1 and MEKK)
Method: This example illustrates a p38 (MAP) kinase in vitro assay useful for evaluating the compounds of the invention.
The p38 MAP kinase inhibitory activity of compounds of this invention in vitro was determined by measuring the transfer of the γ-phosphate from γ-^33P-ATP by p-38 kinase to Myelin Basic Protein (MBP), using a minor modification of the method described in Ahn, et al., J. Biol. Chem. 266:4220-4227 (1991).
The phosphorylated form of the recombinant p38 MAP kinase was co-expressed with SEK-1 and MEKK in E. Coli (see, Khokhlatchev, et al., J. Biol. Chem. 272:11057-11062 (1997)) and then purified by affinity chromatography using a Nickel column.
The phosphorylated p38 MAP kinase was diluted in kinase buffer (20 mM 3-(N-morpholino)propanesulfonic acid, pH 7.2, 25 mM β-glycerol phosphate, 5 mM ethylene glycol-bis(beta-aminoethyl ether)-N,N,N′,N′-tetraacetic acid, 1 mM sodium ortho-vanadate, 1 mM dithiothreitol, 40 mM magnesium chloride). Test compound dissolved in DMSO or only DMSO (control) was added and the samples were incubated for 10 min at 30° C. The kinase reaction was initiated by the addition of a substrate cocktail containing MBP and γ-^33P-ATP. […] The phosphorylated MBP was then separated from the residual γ-^33P-ATP using a phosphocellulose membrane (Millipore, Bedfrod, Mass.) and quantitated using a scintillation counter (Packard, Meriden, Conn.).

T1 sequence (Q16539 whole entry): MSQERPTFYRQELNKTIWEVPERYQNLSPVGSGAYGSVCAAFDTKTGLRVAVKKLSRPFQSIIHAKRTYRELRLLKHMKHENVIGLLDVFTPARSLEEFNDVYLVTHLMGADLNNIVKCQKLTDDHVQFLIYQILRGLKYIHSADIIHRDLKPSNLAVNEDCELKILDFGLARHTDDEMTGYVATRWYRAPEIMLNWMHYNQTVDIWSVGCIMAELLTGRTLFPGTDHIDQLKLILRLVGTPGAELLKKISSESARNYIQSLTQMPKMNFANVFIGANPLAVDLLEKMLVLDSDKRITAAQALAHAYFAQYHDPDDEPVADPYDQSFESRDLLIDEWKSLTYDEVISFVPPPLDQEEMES

Which melting point does the source give for `CS(=O)(=O)c1ccc(Cl)c(-c2n[nH]c3nc(Oc4ccc(F)cc4F)ncc23)c1` [Compound 2, 3-(2-Chloro-5-methanesulfonyl-phenyl)-6-(2,4-difluoro-phenoxy)-1H-pyrazolo[3,4-d]pyrimidine] here?
Its melting point is 251.6 to 252.2 °C.

For `CS(=O)(=O)c1ccc(Cl)c(-c2n[nH]c3nc(Oc4ccc(F)cc4F)nc(NC(CO)CO)c23)c1` [Compound 4, 2-[3-(2-Chloro-5-methanesulfonyl-phenyl)-6-(2,4-difluoro-phenoxy)-1H-pyrazolo[3,4-d]pyrimidin-4-ylamino]-propane-1,3-diol], which IC50 (p38 MAP kinase) is on record?
The IC50 was about 2 nM.

Which melting point does the source give for `Cc1ccc(S(C)(=O)=O)cc1-c1n[nH]c2nc(Oc3ccc(F)cc3F)ncc12` [Compound 5, 6-(2,4-Difluoro-phenoxy)-3-(5-methanesulfonyl-2-methyl-phenyl)-1H-pyrazolo[3,4-d]pyrimidine] here?
The melting point was 133 to 135 °C.
